Laboratory results taken from PubChem BioAssay AID449767 (Vanderbilt High Throughput Screening Facility, 2010).
Activity calls are given as the source filed them. No rule for the calls is given here.

These compounds were tested against Muscarinic acetylcholine receptor M4 (Rattus norvegicus) (UniProt P08485) (assay: M4 PAM leftward shift of ACh curve – rM4 cells, calcium, ACh concentration-response fold shift (AID 449767)). Settings: acetylcholine CRC fold-shift, at 30 µM, active compounds read high.
Muscarinic acetylcholine receptor M4 (Rattus norvegicus), sequence (P08485 whole entry, looked up): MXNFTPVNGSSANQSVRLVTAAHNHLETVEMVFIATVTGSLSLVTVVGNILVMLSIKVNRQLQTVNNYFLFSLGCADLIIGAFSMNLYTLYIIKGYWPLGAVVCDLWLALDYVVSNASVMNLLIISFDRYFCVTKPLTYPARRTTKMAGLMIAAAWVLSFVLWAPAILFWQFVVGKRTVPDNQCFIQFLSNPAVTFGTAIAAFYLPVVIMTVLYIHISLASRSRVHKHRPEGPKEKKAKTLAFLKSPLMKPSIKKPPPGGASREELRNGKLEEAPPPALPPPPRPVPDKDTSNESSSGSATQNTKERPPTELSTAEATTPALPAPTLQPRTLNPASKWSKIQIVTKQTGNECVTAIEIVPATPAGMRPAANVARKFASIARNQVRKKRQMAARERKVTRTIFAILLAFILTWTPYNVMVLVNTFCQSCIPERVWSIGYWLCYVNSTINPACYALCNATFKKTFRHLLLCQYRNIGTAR
With `Cc1cc(C)c2c(N)c(C(=O)NCc3cccc(F)c3F)sc2n1` the fold shift was 18.
For `Cc1cc(OCCCN(C)C)nc2sc(C(=O)NCc3cc(F)ccc3F)c(N)c12`, the fold shift was 14.
For `Cc1cc(OCc2ccncc2)nc2sc(C(=O)NCc3cccc(F)c3F)c(N)c12`, the fold shift was 36.
Work on `COCCCNC(=O)c1sc2nc(OCCN3CCOCC3)cc(C)c2c1N` yielded a fold shift of 67.
`Cc1cc(OCCCN(C)C)nc2sc(C(=O)NC3COC3)c(N)c12` showed a fold shift of 7.
`Cc1cc(C)c2c(N)c(C(=O)NCc3ccc4c(c3)OCO4)sc2n1` gave a fold shift of 40.
With `Cc1cc(OCCN2CCOCC2)nc2sc(C(=O)NC(C)(C)C)c(N)c12` the fold shift was 62.
`Cc1cc(C)c2c(N)c(C(=O)NCc3ccc(Cl)cc3)sc2n1` was tested, and the fold shift was 48.
Compound `Cc1cc(C)c2c(N)c(C(=O)NCc3ccccc3)sc2n1` has a fold shift of 26.
Compound `Cc1cc(C)c2c(N)c(C(=O)NCc3ccccc3F)sc2n1` has a fold shift of 16.
With `Cc1cc(OCc2ccccn2)nc2sc(C(=O)NCc3cc(F)ccc3F)c(N)c12` the fold shift was 41.
Compound `COc1ccc(CNC(=O)c2sc3nc(OCc4ccncc4)cc(C)c3c2N)cc1` has a fold shift of 50.
Work on `Cc1cc(OCc2ccccn2)nc2sc(C(=O)NCc3cccc(F)c3F)c(N)c12` yielded a fold shift of 28.
In the case of `COc1ccc(CNC(=O)c2sc3nc(OCCN4CCOCC4)cc(C)c3c2N)cc1`, the fold shift is reported as 37.
For `COc1ccc(CNC(=O)c2sc3nc(OCCCN(C)C)cc(C)c3c2N)cc1`, the fold shift was < 1 (inactive).
`COc1ccc(CNC(=O)c2sc3nc(C)cc(C)c3c2N)cc1` was tested, and the fold shift was 42.
Work on `Cc1cc(OCc2ccncc2)nc2sc(C(=O)NCc3cc(F)ccc3F)c(N)c12` yielded a fold shift of 64.
For `COc1ccc(CNC(=O)c2sc3nc(OCc4ccccn4)cc(C)c3c2N)cc1`, the fold shift was 4.
For `COc1ccc(CNC(=O)c2sc3nc(OCc4cccnc4)cc(C)c3c2N)cc1`, the fold shift was 9.
`Cc1cc(OCCN2CCOCC2)nc2sc(C(=O)Nc3ccccc3)c(N)c12` gave a fold shift of 51.
`Cc1cc(OCCN2CCOCC2)nc2sc(C(=O)NC3COC3)c(N)c12` showed a fold shift of 40.
With `COc1ccc(CNC(=O)c2sc3nc(OCCN4CCCC4)cc(C)c3c2N)cc1` the fold shift was 25.
For `Cc1cc(OCCN2CCOCC2)nc2sc(C(=O)NC(C)C)c(N)c12`, the fold shift was 36.
